In assay [1] the test system is parasite-infected cells (Theileria annulata - TBL3). Briefly: Cell viability XTT assay, TBL3. Type of assay: cell-based, bovine. As to the method: (§1) All infected bovine cell lines used in this study were previously described: TBL3 cells were derived from in vitro infection of the spontaneous bovine-B lymphosarcoma cell line, BL3, with Hissar stock of T.annulata. The TpMD409 lymphocyte cell line are infected with T. parva. The culture conditions of these cell lines were previously described by Moreau et al., 1999. Cells were cultured in RPMI 1640 (Gibco-BRL, Paisley, UK), supplemented with 10% heat-inactivated Fetal calf serum, 4mM L-Glutamine, 25mM HEPES, 10µM β-mercaptoethanol and 100µg/ml penicillin/streptomycin in a humidified 5%CO2 atmosphere at 37°C. HepG2, NIH/3T3 and MEF cells lines were cultured in DMEM (Gibco-BRL, Paisley, UK), supplemented with 10% heat-inactivated Fetal calf serum, 4mM L-Glutamine, 25 mM HEPES, 10µM β-mercaptoethanol and 100µg/ml penicillin/streptomycin in a humidified 5% CO2 atmosphere at 37°C. Cell numbers, as judged by Trypan Blue exclusion test, were determined by counting cells using a Countess automated cell counter (Invitrogen, CA, USA). The anti-parasite drug Buparvaquone (BW720c) was used at 200ng/ml for 72 hours. BW720c has no effect on growth of uninfected cells. […]

Assay [2] relates to FBW7 and c-Jun in TBL3 cells. Briefly: Immunoblot of FBW7 and c-Jun protein in TBL3 cells. Type of assay: cell-based, bovine. As to the method: Total proteins were extracted with Laemmli lysis, sonicated: 15 secs ON / 30 secs OFF for 5 min, resolved on 10.5% acrylamide/bis-acrylamide SDS-PAGE gels and transferred to nitrocellulose membranes (Thermo Fisher Scientific, MA, USA) in transfer buffer. Protein transfer was assessed by Ponceau-red staining. Membranes were blocked in Tris-buffered saline pH7.4 containing 0.1% Tween-20 and 5% milk for 1 h at room temperature. Incubations with primary antibodies were carried out at 4°C overnight using antibody dilutions as manufacturer recommendations in Trisbuffered saline pH7.4, 0.05% Tween-20 and 5% milk. Following 1 h incubation with an anti-rabbit or anti-mouse peroxidase-conjugated antibody (Sigma, St Louis, MO, USA) at room temperature, proteins were detected by chemiluminescence (Thermo Fisher Scientific, MA, USA) following the manufacturer's instructions. The following antibodies were used: Rabbit anti-TaPIN (Home-made antibody, Proteogenix, Peptide used: […]-Cys), rabbit anti-PIN1 (Cell Signaling, Ref: 3722), rabbit anti-TaActin (kindly provided by Jake Baum, Australia), rabbit anti-c-Jun (Santa Cruz, CA, USA Ref: sc1694), mouse anti-αTubulin (Sigma, Ref: T9026), , rabbit anti-HIF1α (Abcam, Cambridge, UK; Ref: ab75918), rabbit anti-Hexokinase II (Cell Signaling, Ref: C64G5), rabbit anti-PDK1 (Cell signaling, Ref: C47H1), mouse anti-HA (Roche, Ref: 11583816001), rabbit anti-FBW7 (Bethyl Laboratories, Ref: A301-721A), rabbit anti-Histone H3 (Abcam, Ref: ab1791), rabbit anti-PKM2 (Abcam, Ref: ab38237), mouse anti-Actin (Sigma, Ref: A1978) and monoclonal anti-FLAG M2-Peroxidase (Sigma, Ref: A8592). c-Jun, FBW7 or PKM2/Actin ratios were calculated after Western blot signal quantification with the Plot Lanes Analysis tool of Image J software (National Institutes of Health, Bethesda, MD, USA).

Assay [3] concerns FBW7 and c-Jun mRNA in TBL3 cells. As to the kind of experiment: RT-qPCR of FBW7 and c-Jun mRNA in TBL3 cells. Type of assay: cell-based, bovine. As to the method: (§2) Total cellular RNAs were extracted using an RNeasy Plus Mini Kit (Qiagen, Hilden, Germany) and parasite RNAs were extracted using the classical Trizol Protocol. cDNA synthesis was performed with the Reverse Transcriptase Superscript III (Invitrogen, CA, USA).
(§3) Quantitative PCR amplification was performed in the ABI 7500 machine (Applied Biosystems, CA, USA) using the Sybr Green reagent (Applied Biosystems, CA, USA) using the primers listed in Table 5 below. The detection of a single product was verified by dissociation curve analysis. Relative quantities of mRNA were analyzed using the delta Ct method. The βactin qPCR was used for normalization. Table 5: qPCR primers

The subject of assay [4] is HIF1alpha transcriptional activity. As to the kind of experiment: HRE-Luciferase reporter assay. Format: cell-based, bovine. As to the method: Bovine cells were transfected with the 5xHRE (Staller et al., 2003) or CyclinD1- (Wulf et al., 2001) Luciferase reporters, using electroporation (Neon kit, Invitrogen, CA, USA). Mouse cells were transfected using Lipofectamine 2000 (Invitrogen, CA, USA). Transfections efficiencies were normalized to Renilla activity by co-transfection of a pRL-TK Renilla reporter plasmid (Promega, Ref.: E6241). Luciferase assays were performed 36h post-transfection using the Dual-Luciferase Reporter Assay System (Promega, Ref: E1980) in a microplate luminometer. Relative luminescence was represented as the ratio Firefly/Renilla luminescence, compared with the corresponding empty vector control. The 5xHRE promoter-Luciferase construct was obtained from P Staller (Biotech Research & Innovation Centre, Copenhagen, […]).

In assay [5] the test system is TBL3 cells transiently expressing TaPIN Mutant A53P. Briefly: Proliferation of TBL3 cells transiently expressing TaPIN Mutant A53P. Format: cell-based, bovine. The conditions noted are these: transient expression of TaPIN Mutant A53P. As to the method: as §1
For assay [6], the system named is c-Jun and FBW7 ubiquitination in TBL3 cells. Briefly: Ubiquitination of endogenous c-Jun and FBW7 in TBL3 cells. Type of assay: cell-based, bovine.
For assay [7], the system named is TpPIN1 (TP01_0114) transcripts. Briefly: Quantitative PCR of TpPIN transcripts in T.parva-infected cells. Format: cell-based. As to the method: as §2, §3

We go through two molecules from patent EP2845588A1, “PIN1 inhibitors for use in the prevention and/or treatment of theileriosis, and related applications” (Centre National de la Recherche Scientifique (CNRS), priority 2013, dated 2015).

Each structure is given as a SMILES string.

In the case of `CCOC(=O)CN1C(=O)c2ccc3c4c(ccc(c24)C1=O)C(=O)N(CC(=O)OCC)C3=O` [PiB, benzo[Imn][3,8]phenanthroline-2,7-diacetic acid, 1,3,6,8-tetrahydro-1,3,6,8-tetraoxo-, diethyl ester], in assay [1] (PiB, infected cell line not given), the host cell viability entry was “reduced”. Moreover, in assay [2], the FBW7 protein entry is reported as “induced” and the c-Jun levels result is “reduced”. Also, the mRNA expression result in assay [3] is “no effect”. For the same molecule, in assay [4], the HIF1alpha transcriptional activity result is “reduced”.
For `CC(C)(C)C1CCC(CC2=C(O)C(=O)c3ccccc3C2=O)CC1` (centres unmarked) [Buparvaquone, 2-((4-tert-butylcyclohexyl)methyl)-3-hydroxy-1,4-naphthoquinone], in assay [1] (TBL3, 72h, XTT assay), the “viability of parasite-infected cells” value is “decreased the viability”. The “drug effect on TBL3 cell proliferation on overexpression of the TaPIN Mutant A53P” value in assay [5] was “rescued”. In assay [2], the FBW7 protein result is recorded as “induced” and the c-Jun levels result is listed as “reduced”. Also, in assay [3], the mRNA expression entry is on record as “no effect”. Further, the “ubiquitination of endogenous c-Jun protein” value in assay [6] (TBL3 cells) was “elevated”. Besides, the “rescue of the drug effect on c-Jun ubiquitination by overexpressing the TaPIN A53P mutant” value in assay [6] (TBL3 cells overexpressing TaPIN A53P) was “rescued”. Besides, the HIF1alpha transcriptional activity entry in assay [4] was “reduced”. Besides, the TpPIN1 transcripts entry in assay [7] is listed as “reduced”.
